According to PubChem BioAssay (NCI):
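Values below derive from 48-hour exposures of cells grown in 96-well plates, with endpoints linearly interpolated between the two concentrations bracketing the appropriate inhibition level. GI50 is the concentration that inhibits growth by half. TGI marks complete inhibition of growth.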

Legend:
Assay in all cases: inhibition of tumour cell growth, NCI panel, 48 h
[1] = system: HCC-2998 colon
[2] = system: COLO 205 colon
[3] = system: TK-10 renal
[4] = system: CAKI-1 renal
[5] = system: A549 NSCLC
[6] = system: SK-MEL-28 melanoma
[7] = system: NCI-H460 lung
[8] = system: OVCAR-5 ovarian
[9] = system: SK-MEL-2 melanoma
[10] = system: MDA-MB-435

Compound	TGI [1] [µM]	TGI [2] [µM]	TGI [3] [µM]	TGI [4] [µM]	TGI [5] [µM]	TGI [6] [µM]	TGI [7] [µM]	TGI [8] [µM]	TGI [9] [µM]	GI50 [1] [µM]	GI50 [2] [µM]	GI50 [3] [µM]	GI50 [5] [µM]	GI50 [6] [µM]	GI50 [7] [µM]	GI50 [8] [µM]	GI50 [9] [µM]	GI50 [10] [µM]	TGI [10] [µM]	GI50 [4] [µM]
CCCCCCCCC(=O)N(C)C1C2CN3CCC(O2)C13 (stereo not given)	> 100	> 100	> 100	> 100	> 100	> 100	> 100	> 100	> 100											
O=c1[nH]nc2ccccc2c1Cl	7.27	23.4	33	12	91.5		46.2	33.9	33.6											
O=c1c2cccc3cccc(c4oc5c6cccc7cccc(c(=O)c5c14)c76)c32	> 31.6	15.6	17.5	45.9	25.4	17.7	18.1	> 31.6	23.3											
CN1CCN(c2nc(NCCCCNc3ccnc4cc(Cl)ccc34)c3ccccc3n2)CC1	7.12	5.46	4.69		20.5	3.57	18.3	15.8	4.48	2.59	2.1	1.85	5.19	1.85	5.14	2.98	2.11	1.97	4.25	
COc1cc2c3c(n(CCCNCC(OC)OC)c(=O)c2cc1OC)-c1cc2c(cc1C3=O)OCO2		> 61.1	47.8	17.2	37.9	36.3	20.5	37.8	> 73.5		14	11.9	11.2	18.4	0.0972	16.9	> 49.1	10.4	97	0.219
N#C/C(=C1\NN=C(N)C(c2ccc(Cl)cc2)=C1O)c1ccc(Cl)cc1	> 100	> 100	> 100	> 100	> 100	> 100	> 100	> 100												
O=C(O)CCSCCCN1C(=O)c2ccccc2C1=O	> 100	> 100	> 100		> 100	> 100		> 100	> 100											
Fc1cccc2cc3ccc4cccc5ccc(c12)c3c45	> 100	> 100	> 100	> 100	> 100	> 100		> 100												
O=C(/C=C/c1ccc(Cl)c(Cl)c1)c1ccc(F)cc1	32.8	52	94.7	60.8	> 100	39.5	54.9	55.2												
COC(=O)C1C2C=CC(C2)C1(C(=O)OC)S(=O)CC12CCC(CC1O)C2(C)C (stereo not given)	> 100	> 100	> 100	> 100	> 100	> 100	> 100	> 100	> 100											
CN(C)CCNC(=O)c1ccc(C(=O)NCCN(C)C)c2nc3ccccc3cc12	2.98	2.39	5.08	9.09	13	3.89	2.79	3.78	2.57											
COc1ccc(C2=NN(C(=O)COc3ccc(Cl)cc3)C(O)(c3ccc(Cl)cc3)C2)cc1 (stereo not given)	> 100	> 100	> 100	> 100	> 100	> 100	> 100	> 100	> 100											
Nc1c(Br)c(=O)[nH]c(=O)n1COCCO	> 100	> 100	> 100	> 100	> 100	> 100	> 100	> 100												
O=C1OC(CC(=O)c2ccc(Cl)cc2Cl)C(Cl)=C1Cl (stereo not given)	29.4	52.6	> 79	> 70.3	> 100	37.2	> 100	> 62.8	41.7											
CC1=C(C(=O)Nc2cccc(Cl)c2)C(c2ccc([N+](=O)[O-])cc2)C(C(=O)Nc2cccc(Cl)c2)=C(C)N1	48.2	> 100	> 100		> 100	> 100	50.4	> 100	32.9											
Cc1ccc(S(=O)(=O)NNC(=O)c2sc(-c3nc(C)c(C(=O)NNS(=O)(=O)c4ccc(C)cc4)s3)nc2C)cc1	> 100	> 100	> 100	> 100	> 100	> 100	> 100	> 100	> 100											
CC1CC(c2cccc3c2OCO3)=Nc2ccccc2S1 (stereo not given)	> 100	> 100	> 100	> 100	> 100	> 100	> 100	> 100	> 100											
COc1ccc(C(Cc2cc(OC)c(OC)c(OC)c2)C(=O)O)cc1 (stereo not given)	> 100	> 100	> 100	> 100	> 100	> 100	> 100	> 100	> 100											
Cc1cc(C)c2c(c1)Nc1ccccc1P2c1ccccc1 (stereo not given)	60	> 100	> 100	98.1	> 100	> 100	50.8													
CCN1CCN(CC(=O)Nc2nc3ccc(NCc4ccc(Cl)cc4)cc3s2)CC1		3.5	7.45	5.19	8.01	3.31	4.69		3.98		1.82	2.84	2.76	1.8	2.18		2.02	1.9	3.81	2.1
O=C1CC(c2ccc3c(c2)OCO3)Nc2cc3c(cc21)OCO3 (stereo not given)	11	0.885	> 100	> 100	> 100		13	> 100	> 100	0.694	0.282	2.77	0.6		0.353	2.3	0.747			0.527
